From the supplement of paper PMC10307832 come the findings set out here.

What all share (experiment): relative viability (nuclei count vs DMSO), 5 days (fraction); higher = more cells survive
Compound in experiment [1]: O=C(/C=C/c1cccnc1)NCCCCC1CCN(C(=O)c2ccccc2)CC1 [Daporinad] + C[C@]1(O)C[C@@H](c2nc(-c3ccc4ccc(-c5ccccc5)nc4c3)c3c(N)nccn32)C1 [Linsitinib] (partner 1 µM)
The method, boiled down: (§1)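 Medians of duplicate plates are given as relative viability. That measure is the nuclei count in treated wells divided by the count in vehicle wells. Counts were taken on 4× images of lung cancer cell lines in 1536-well plates, 5 days after pin-tool dosing the day after seeding with one drug alone or a fixed anchor-drug dose plus five library-drug doses (not always all listed) in √10 steps.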

Compound in experiment [2]: COc1cc(Nc2ncc(F)c(Nc3ccc4c(n3)NC(=O)C(C)(C)O4)n2)cc(OC)c1OC [R406] + Nc1ncn([C@H]2C[C@H](O)[C@@H](CO)O2)c(=O)n1 [Decitabine] (partner 2 µM)
The method, boiled down: as §1

Compound in experiment [3]: COc1cc(Nc2ncc(F)c(Nc3ccc4c(n3)NC(=O)C(C)(C)O4)n2)cc(OC)c1OC [R406] + CCNC(=O)c1noc(-c2cc(C(C)C)c(O)cc2O)c1-c1ccc(CN2CCOCC2)cc1 [Luminespib] (partner 0.01 µM)
The method, boiled down: as §1

Compound in experiment [4]: COc1cc(Nc2ncc(F)c(Nc3ccc4c(n3)NC(=O)C(C)(C)O4)n2)cc(OC)c1OC [R406] + N=C(N)NC(=N)NCCc1ccccc1 [Phenformin] (partner 250 µM)
The method, boiled down:
as §1

With EBC-1, the relative viability in experiment [1] (first compound 0.0005 µM) turned out to be 0.747; in experiment [1] (first compound 0.001581 µM), 1.21; in experiment [1] (first compound 0.005 µM) it was 0.801; in experiment [1] (first compound 0.01581 µM), 1.07.
For EKVX, the relative viability in experiment [2] (first compound 0.08 µM) is 0.341; in experiment [2] (first compound 0.253 µM) it was 0.365; in experiment [2] (first compound 0.8 µM) it was 0.316; in experiment [2] (first compound 2.53 µM) it was 0.336; in experiment [2] (first compound 8 µM) it was 0.354; in experiment [1] (first compound 0.0005 µM) it was 1.04. The relative viability in experiment [1] (first compound 0.001581 µM) was 1.09; in experiment [1] (first compound 0.005 µM), 0.913; in experiment [1] (first compound 0.01581 µM) it was 1.18; in experiment [3] (first compound 0.08 µM), 0.863; in experiment [3] (first compound 0.253 µM) it was 0.885; in experiment [3] (first compound 0.8 µM), 1.06. Also, the relative viability was 0.702 in experiment [3] (first compound 2.53 µM); 0.74 in experiment [3] (first compound 8 µM); 0.23 in experiment [4] (first compound 0.08 µM); 0.254 in experiment [4] (first compound 0.253 µM); 0.245 in experiment [4] (first compound 0.8 µM); 0.208 in experiment [4] (first compound 2.53 µM). Also, the relative viability in experiment [4] (first compound 8 µM) was determined as 0.178.
As to EMC-BAC-2, the relative viability is 0.942 in experiment [2] (first compound 0.08 µM); 1.03 in experiment [2] (first compound 0.253 µM); 1.06 in experiment [2] (first compound 0.8 µM); 0.974 in experiment [2] (first compound 2.53 µM); 0.855 in experiment [2] (first compound 8 µM); 0.904 in experiment [1] (first compound 0.0005 µM). Also, the relative viability was determined as 0.797 in experiment [1] (first compound 0.001581 µM); 0.802 in experiment [1] (first compound 0.005 µM); 0.339 in experiment [1] (first compound 0.01581 µM); 1.14 in experiment [3] (first compound 0.08 µM); 1.15 in experiment [3] (first compound 0.253 µM); 1.27 in experiment [3] (first compound 0.8 µM). The relative viability worked out at 0.745 in experiment [3] (first compound 2.53 µM); 0.532 in experiment [3] (first compound 8 µM); 0.516 in experiment [4] (first compound 0.08 µM); 0.587 in experiment [4] (first compound 0.253 µM); 0.616 in experiment [4] (first compound 0.8 µM); 0.388 in experiment [4] (first compound 2.53 µM). Further, the relative viability in experiment [4] (first compound 8 µM) was 0.198.
Take EPLC-272H: the relative viability worked out at 0.354 in experiment [2] (first compound 0.08 µM); 0.391 in experiment [2] (first compound 0.253 µM); 0.436 in experiment [2] (first compound 0.8 µM); 0.26 in experiment [2] (first compound 2.53 µM); 0.21 in experiment [2] (first compound 8 µM); 1.11 in experiment [1] (first compound 0.0005 µM). In addition, the relative viability turned out to be 1.32 in experiment [1] (first compound 0.001581 µM); 1.31 in experiment [1] (first compound 0.005 µM); 1.4 in experiment [1] (first compound 0.01581 µM); 0.259 in experiment [3] (first compound 0.08 µM); 0.264 in experiment [3] (first compound 0.253 µM); 0.337 in experiment [3] (first compound 0.8 µM). The relative viability in experiment [3] (first compound 2.53 µM) was 0.106; in experiment [3] (first compound 8 µM) it was 0.0888; in experiment [4] (first compound 0.08 µM) it was 0.278; in experiment [4] (first compound 0.253 µM), 0.371; in experiment [4] (first compound 0.8 µM), 0.333; in experiment [4] (first compound 2.53 µM) it was 0.25. For the same cell line, in experiment [4] (first compound 8 µM), the relative viability amounted to 0.207.
H3255: the relative viability in experiment [2] (first compound 0.08 µM) came to 0.656; in experiment [2] (first compound 0.253 µM), 0.589; in experiment [2] (first compound 0.8 µM) it was 0.714; in experiment [2] (first compound 2.53 µM), 0.571; in experiment [2] (first compound 8 µM), 0.458; in experiment [1] (first compound 0.0005 µM) it was 0.913. In addition, the relative viability turned out to be 0.951 in experiment [1] (first compound 0.001581 µM); 1.03 in experiment [1] (first compound 0.005 µM); 1.13 in experiment [1] (first compound 0.01581 µM); 1.04 in experiment [3] (first compound 0.08 µM); 0.827 in experiment [3] (first compound 0.8 µM); 0.69 in experiment [3] (first compound 2.53 µM). Also, the relative viability in experiment [3] (first compound 8 µM) stood at 0.731; in experiment [4] (first compound 0.08 µM), 0.366; in experiment [4] (first compound 0.8 µM) it was 0.352; in experiment [4] (first compound 2.53 µM), 0.369; in experiment [4] (first compound 8 µM) it was 0.311.
As for HARA, the relative viability in experiment [2] (first compound 0.08 µM) was found to be 0.414; in experiment [2] (first compound 0.253 µM) it was 0.597; in experiment [2] (first compound 0.8 µM), 0.586; in experiment [2] (first compound 2.53 µM) it was 0.584; in experiment [2] (first compound 8 µM) it was 0.178; in experiment [1] (first compound 0.0005 µM) it was 0.949. In addition, the relative viability in experiment [1] (first compound 0.001581 µM) is 0.937; in experiment [1] (first compound 0.005 µM), 1.03; in experiment [1] (first compound 0.01581 µM), 0.188; in experiment [3] (first compound 0.08 µM), 0.51; in experiment [3] (first compound 0.253 µM) it was 0.638; in experiment [3] (first compound 0.8 µM), 1.06. Further, the relative viability in experiment [3] (first compound 2.53 µM) turned out to be 0.483; in experiment [3] (first compound 8 µM) it was 0.193; in experiment [4] (first compound 0.08 µM), 0.386; in experiment [4] (first compound 0.253 µM), 0.508; in experiment [4] (first compound 0.8 µM), 0.548; in experiment [4] (first compound 2.53 µM) it was 0.377. The relative viability in experiment [4] (first compound 8 µM) came out at 0.324.
With HCC-15, the relative viability was found to be 0.636 in experiment [2] (first compound 0.08 µM); 0.788 in experiment [2] (first compound 0.253 µM); 0.687 in experiment [2] (first compound 0.8 µM); 0.603 in experiment [2] (first compound 2.53 µM); 0.389 in experiment [2] (first compound 8 µM); 0.79 in experiment [1] (first compound 0.0005 µM). Further, the relative viability in experiment [1] (first compound 0.001581 µM) was 0.943; in experiment [1] (first compound 0.005 µM), 0.926; in experiment [1] (first compound 0.01581 µM), 0.928; in experiment [3] (first compound 0.08 µM), 0.289; in experiment [3] (first compound 0.253 µM), 0.518; in experiment [3] (first compound 0.8 µM) it was 0.295. Besides, the relative viability is 0.298 in experiment [3] (first compound 2.53 µM); 0.465 in experiment [3] (first compound 8 µM); 0.467 in experiment [4] (first compound 0.08 µM); 0.606 in experiment [4] (first compound 0.253 µM); 0.595 in experiment [4] (first compound 0.8 µM); 0.445 in experiment [4] (first compound 2.53 µM). Further, the relative viability in experiment [4] (first compound 8 µM) is 0.234.
On to HCC-44, for which the relative viability in experiment [2] (first compound 0.08 µM) was 0.924; in experiment [2] (first compound 0.253 µM), 1.04; in experiment [2] (first compound 0.8 µM), 0.856; in experiment [2] (first compound 2.53 µM) it was 1; in experiment [2] (first compound 8 µM), 1.05; in experiment [1] (first compound 0.0005 µM), 0.655. Further, the relative viability was 0.635 in experiment [1] (first compound 0.001581 µM); 0.762 in experiment [1] (first compound 0.005 µM); 0.714 in experiment [1] (first compound 0.01581 µM); 0.975 in experiment [3] (first compound 0.08 µM); 0.911 in experiment [3] (first compound 0.253 µM); 1.2 in experiment [3] (first compound 0.8 µM). The relative viability in experiment [3] (first compound 2.53 µM) stood at 0.458; in experiment [3] (first compound 8 µM) it was 0.274; in experiment [4] (first compound 0.08 µM) it was 0.15; in experiment [4] (first compound 0.253 µM), 0.22; in experiment [4] (first compound 0.8 µM), 0.196; in experiment [4] (first compound 2.53 µM), 0.18. Also, the relative viability in experiment [4] (first compound 8 µM) came to 0.127.
Turning to HCC-78, the relative viability in experiment [2] (first compound 0.08 µM) came to 0.566; in experiment [2] (first compound 0.253 µM), 0.785; in experiment [2] (first compound 0.8 µM) it was 0.702; in experiment [2] (first compound 2.53 µM), 0.749; in experiment [2] (first compound 8 µM), 0.61; in experiment [1] (first compound 0.0005 µM), 0.541. For the same cell line, the relative viability was found to be 0.619 in experiment [1] (first compound 0.001581 µM); 0.767 in experiment [1] (first compound 0.005 µM); 0.921 in experiment [1] (first compound 0.01581 µM); 0.544 in experiment [4] (first compound 0.08 µM); 0.751 in experiment [4] (first compound 0.253 µM); 0.842 in experiment [4] (first compound 0.8 µM). The relative viability is 0.611 in experiment [4] (first compound 2.53 µM) and 0.392 in experiment [4] (first compound 8 µM).
